In patent publication US9388126B2, “Sigma receptor ligands and methods of modulating cellular protein homeostasis using same” (Drexel University, priority 2012, dated 2016):
Where “and” joins values, the source holds several entries; their conditions need not be identical. Equal entries are not always repeated.

Assays:
Format in all cases: cell-based, human
HER2/3 in SkBr-3 cells = experiment: HER2 and HER3 level immunoblots; conditions: 10 μM for 1-to-24 hours; 1, 3, 10, 20 μM for 12 hours
Description: FIG. 67, comprising FIGS. 67A-67F, illustrates the finding that Sigma1 ligands may be used to modulate (in this case, decrease) the levels of growth factor receptors such as HER2 and HER3 in breast cancer cells, in the absence of detectable cell death. […] Short exposure to IPAG or lower dosage induces ubiquitin-mediated autophagosomal degradation of HER2/3. Prolonged IPAG treatment or higher dosage caused translational arrest. […] FIG. 67A is a set of immunoblots of HER2 following treatment with IPAG. Detergent soluble whole-cell lysates were solved by denaturing SDS-PAGE. (i) 1-to-24 hour (h) treatment with 10 μM IPAG or 11 μM thapsigargin (TG). (ii) Following 12 hour treatment with 1, 3, 10, 20 μM IPAG. FIG. 67B is a set of immunoblots of HER3 following treatment with IPAG. Detergent soluble whole-cell lysates were solved by denaturing SDS-PAGE. (i) 1-to-24 hour (h) treatment with 10 μM IPAG or 1 μM thapsigargin (TG). (ii) Following 12 hour treatment with 1, 3, 10, 20 μM IPAG. FIG. 67C is a set of immunoblots of detergent soluble whole-cell lysates solved by denaturing SDS-PAGE. […] (iii) Quantification of bands in (i). […] (ii) Quantification of HER3 band in DMSO (vehicle control) treated conditions. (iii) Quantification of HER3 band in IPAG treated conditions.

[1] = system: MDA-MB-468 breast tumor cells; experiment: Akt, S6K and ERK phosphorylation immunoblots
Procedure: FIG. 40, comprising FIGS. 40A-40C, illustrates Sigma1 antagonist modulation of Akt, S6K, and ERK phosphorylation. MDA-MB-468 breast tumor cells were treated for 24 hours with 10 μM IPAG (Sigma1 antagonist) or (+)SKF-10047 (SKF, Sigma1 agonist). Treated cells were harvested and cellular proteins were extracted with a buffer containing 1% Sodium Dodecyl Sulfate (SDS) and deoxycholate (DOC), supplemented with phosphatase and protease inhibitors. FIG. 40A is an image of an immunoblot illustrating Akt phosphorylation. […] Akt phosphorylation at threonine 308 was not altered in any of the samples (not shown). Equivalent loading was confirmed with an anti-GAPDH antibody. FIG. 40B is an image of an immunoblot illustrating phosphorylation. Phosphorylation of mTOR substrate, p70S6K at threonine 389 decreased 3-fold in IPAG, but not SKF treated cells. Total p70S6K was immunoblotted as a loading control. FIG. 40C is an immunoblot illustrating that p44/42 ERK1/2phosphorylation at threonine 202 and tyrosine 204 was abrogated by 24 hour treatment with IPAG. Data shown is representative of two independent experiments.

[2] = system: T-47D breast adenocarcinoma cells; experiment: Cell size by flow cytometry (mean FSC-H, G1 phase); conditions: 10 μM
Procedure: FIG. 31A is a differential interference contrast (DIC) image of MDA-MB-468 breast adenocarcinoma cells treated for ˜20 hours with DMSO (drug vehicle control), 10 μM IPAG (antagonist) or 10 μM PRE084 (agonist). A twenty-micron bar is shown in each image. Data are presented as mean±SEM. FIG. 31B is a graph illustrating the finding that IPAG diminished the mean cell size (FSC-H) of MDA-MB-468 breast tumor cells in a time-responsive manner. The mean FSC-H of 370±5 at to decreased to 323±4 after 24 hours of IPAG treatment and to 267±2 after 48 hours of treatment. Two-tailed t-tests were performed to determine statistical significance. For IPAG treatment compared to control (DMSO) and Sigma agonists (SKF and PRE084), P=0.0002 at d1 and P=0.00013 at d2. Data were generated from three to five independent determinations for each time-point. Flow cytometry was used to measure mean cell size (mean FSC-H) of T-47D breast adenocarcinoma cells. FIG. 31C is a bar graph illustrating T-47D cells treated for 24 hours with 10 μM indicated Sigma ligand. IPAG and BD 1047 (Sigma1 antagonists) diminished cell size from a mean FSC-H of 412±5 for control (DMSO) cells versus 341±7 and 381±8 for IPAG and BD1047 treated cells, respectively. […] Data represent 5 independent determinations (*P<0.05, ***P<0.001). FIG. 31D is a bar graph illustrating how IPAG (antagonist) decreases cell size in a dose responsive manner. T-47D were treated for 24 h with 1 and 10 μM IPAG, and mean FSC-H was measured. FIG. 31E is a graph illustrating that T47D cell size decreases over time. T-47D cells were treated for a total of 48 hours with 10 μM of the indicated Sigma ligands. […] Neither Sigma1 agonist, (+)-SKF10047 and PRE084, altered cell size. […] Two-tailed t-tests were performed to determine statistical significance. For IPAG treatment compared to control (DMSO) and Sigma1 agonists (SKF and PRE084), P=0.0002 at d1 and P<0.0001 at d2. For FIGS. 31B-31E, the mean FSC-H was determined for each cell cycle population (i.e., G1, S, G2/M), and data is shown for G1 phase cells. S and G2/M phase cells responded similarly (data not shown).

## N=C(Nc1ccc(I)cc1)NC1C2CC3CC(C2)CC1C3 (stereo not drawn) [IPAG, 1-(4-iodophenyl)-3-(2-adamantyl)guanidine]
HER2/3 in SkBr-3 cells
  levels of HER2/3: time and dose-dependently causes decreased levels of HER2/3
[1]; 10 μM, 24 hours
  decrease of Akt phosphorylation at serine 473: 3 fold
  decrease of p70S6K phosphorylation at threonine 389: 3 fold
[1]; 24 hour treatment
  p44/42 ERK1/2 phosphorylation at threonine 202 and tyrosine 204: abrogated
[2]; 24 hours, control 412±5
  mean FSC-H (relative cell size): 341±7 and 331±3
[2]; 48 hours (d2)
  mean FSC-H (relative cell size): 300±2
